Measurements taken from patent US11191843B2, “Multi-arm targeting anti-cancer conjugate” (priority 2017, dated 2021).

Tested on: orthotopic U87MG brain glioma
Test: Effect on survival in orthotopic U87MG brain glioma model in nude mice
Type: in vivo
Conditions: BALB/c nude mice, 40 mg·kg^-1 (as irinotecan), i.v. via tail, Q4D×3, dosing from day 12 after inoculation
Experimental: Experimental animals: Female BALB/c nude mice (number of animals: 150, weeks of age: 6 to 8 weeks) were purchased from Beijing Vital River Laboratory Animal Technology Co., Ltd., and housed in an SPF animal room. The temperature was 20° C. to 25° C., the relative humidity was 40% to 70%, and the light and dark were respectively 12 hours. The animals had free access to water and food. After about one week of normal feeding, upon a veterinary inspection, mice with good physical signs and conditions could be selected for this experiment. A marking pen was used to mark the base of the tails of the animals before the grouping, and each animal was marked by ear clipping after the grouping.
Transplantable tumor cell strain: Brain glioma cell U87MG, derived from Cell Bank of Committee on Type Culture Collection of Chinese Academy of Science (CAS, stored frozen in liquid nitrogen in the laboratory).
According to the condition of cell growth, the cells were passaged once or twice every week, and were passaged in a ratio of 1:2 to 1:6.
Preparation of the animal model: U87MG cells in logarithmic phase of growth were collected. […] The cells were charged into a 50 mL centrifuge tube after being pipetted with a pipettor to make them evenly dispersed, and the centrifuge tube was placed in an ice box. […]
Data recording and calculation formula: The survival time of the animals were recorded.

## CCc1c2c(nc3ccc(OC(=O)N4CCC(N5CCCCC5)CC4)cc13)-c1cc3c(c(=O)n1C2)COC(=O)[C@]3(O)CC [irinotecan]
  Median survival time: 27 days
